Laboratory results taken from patent US6103709A (priority 1998, dated 2000).
One block for each compound: values may come before it.

Tests used:
[1] = test system: vitamin D-deficient chick; assay: Bone Ca2+ mobilizing activity (BCM) in vitamin D-deficient chick; type: in vivo; conditions: i.m.; for Classic Vit D Responses BCM: relative to 100 pmol 1α,25(OH)2 D3 = 100%, 12 h before assay
[2] = test system: vitamin D-deficient chick; assay: Intestinal Ca2+ absorption (ICA) in vitamin D-deficient chick; type: in vivo; conditions: i.m.; for Classic Vit D Responses ICA: relative to 100 pmol 1α,25(OH)2 D3 = 100%, 12 h before assay
rapid responses (VDRmem) = assay: Antagonist function (summary classification); conditions: Yes/No, Tables 1 and 6
VDRmem = assay: Rapid response (summary classification); conditions: Yes/No, Tables 1 and 6
[3] = biological target: T1, human vitamin D-binding protein (hDBP) (Homo sapiens, UniProt P02774); assay: Relative Competitive Index assay, vitamin D-binding protein; conditions: for Vit D Binding Protein (RCI): RCI of 1α,25(OH)2 D3 set to 100, 4° C., pH 7.4; for DBP binding (in words): compared with 1α,25(OH)2 D3
T1 sequence (P02774 17-474): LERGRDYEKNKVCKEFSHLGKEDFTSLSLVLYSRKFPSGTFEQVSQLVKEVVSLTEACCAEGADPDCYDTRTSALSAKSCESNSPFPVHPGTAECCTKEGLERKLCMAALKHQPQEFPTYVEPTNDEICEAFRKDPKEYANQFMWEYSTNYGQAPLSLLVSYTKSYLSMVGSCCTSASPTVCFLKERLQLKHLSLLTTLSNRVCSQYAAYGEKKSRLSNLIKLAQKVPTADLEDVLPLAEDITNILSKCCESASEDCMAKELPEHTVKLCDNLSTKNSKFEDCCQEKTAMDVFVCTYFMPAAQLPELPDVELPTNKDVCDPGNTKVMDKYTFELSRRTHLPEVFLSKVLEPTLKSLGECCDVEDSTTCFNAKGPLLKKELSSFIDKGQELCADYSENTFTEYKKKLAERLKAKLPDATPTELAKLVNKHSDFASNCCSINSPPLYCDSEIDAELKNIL
Text: The compared analogs are 14α,15α-methano-1α,25(OH)2 D3 (LO), 22(m(dimethylhydroxymethyl)phenyl)-23,24,25,26,27-pentanor-1α- OH-D3 (EV) and (22R)-1,25(OH)2 -22,23,diene-D3 (HR), all conformationally flexible genomic agonists. By definition the RCI for 1α,25(OH)2 D3 is set to 100%. The data seen in FIG. 7 represent the mean of three determinations.
Vitamin D-Binding Protein Assay Relative Competitive Index
This example describes a Relative Competitive Index Assay used for determination of analogs binding affinity to vitamin D-binding protein.
Phase separation was then obtained by the addition of 0.5 ml of cold dextran-coated charcoal.
The data was plotted as [competitor]/[[^3 H]25(OH)D3 ] vs. 1/[fraction bound]. The RCI was calculated as [slope of competitor]/[slopefor 25(OH)D3 ]×100. Results are seen in FIG. 7. Although each analog was assayed in competition with [^3 H]25(OH)D3, the data are expressed as relative to the binding of 1α,25(OH)2 D3, with its RCI set to 100.

VDRnuc = assay: Genomic response (summary classification); conditions: Yes/No, Tables 1 and 6

Binding to DBP relative to 1α,25(OH)2 D3 (RCI, FIG. 7) ([3]; 1α,25(OH)2 D3 = 100%, mean of three determinations): 25% | Vit D Binding Protein (RCI) [3]: 25 | DBP binding (in words) [3]: lower than 1α,25(OH)2 D3
Structure (SMILES): C=C1/C(=C\C=C2/CCC[C@]3(C)[C@@H]([C@H](C)Cc4cccc(C(C)(C)O)c4)CC[C@@H]23)C[C@@H](O)C[C@@H]1O [EV]
Classic Vit D Responses BCM [1]: 8% | BCM (in words) ([1]; vitamin D-deficient chick): show stimulating activity in both ICA and BCM assays | Classic Vit D Responses ICA [2]: 30% | ICA (in words) ([2]; vitamin D-deficient chick): show stimulating activity in both ICA and BCM assays | Antagonist (rapid responses (VDRmem)): No | Rapid Response (VDRmem): Yes | Genomic Response (VDRnuc): Yes

Structure (SMILES): CC1=C(C=C=C2CCC[C@]3(C)[C@@H]([C@H](C)CCCC(C)(C)O)CC[C@@H]23)C[C@@H](O)C[C@@H]1O [JW]
Classic Vit D Responses BCM [1]: 0.3% | Classic Vit D Responses ICA [2]: 0.05% | Antagonist (rapid responses (VDRmem)): No | Rapid Response (VDRmem): Yes | Vit D Binding Protein (RCI) [3]: 700 | Genomic Response (VDRnuc): Yes

Structure (SMILES): CC1=C(C=C=C2CCC[C@]3(C)[C@@H]([C@H](C)CCCC(C)(C)O)CC[C@@H]23)C[C@@H](O)C[C@@H]1O [JV]
Classic Vit D Responses BCM [1]: 0.02% | Classic Vit D Responses ICA [2]: 0.02% | Antagonist (rapid responses (VDRmem)): No | Rapid Response (VDRmem): Yes | Vit D Binding Protein (RCI) [3]: 37 | DBP binding (in words) [3]: lower than 1α,25(OH)2 D3 | Genomic Response (VDRnuc): Yes
